The values that follow come from PubChem BioAssay (NCI).

Some test systems named below: A549 NSCLC; COLO 205 colon; HCT-116 colon; IGROV1 ovarian; NCI-H23 lung; NCI-H522 lung; OVCAR-8 ovarian; SK-MEL-28 melanoma; SK-OV-3 ovarian; SR leukemia.
Common to all, as to assay: NCI-60 cell line screen, 48 h

SMILES strings stand for the structures.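 Following 48 hours of exposure in 96-well plates, responses at five concentrations were used to interpolate endpoints linearly. GI50 is the concentration that inhibits growth by half. Definition used: TGI = concentration required for complete inhibition of growth.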

For the compound `O=C(O)c1cscc1Cc1cccs1`, the TGI in the assay with A549 NSCLC, with COLO 205 colon, in the assay on HCT-116 colon, in the assay on IGROV1 ovarian, with NCI-H23 lung and in the assay with NCI-H522 lung was over 100 µM in each case. The TGI with OVCAR-8 ovarian, with SK-MEL-28 melanoma, with SK-OV-3 ovarian and with SR leukemia was over 100 µM in each case.
On to `CN1CCN(CCNc2ccc(CO)c3sc4ccccc4c(=O)c23)CC1`, for which the TGI in the assay on A549 NSCLC was 11.3 µM; in the assay with COLO 205 colon it was 16.5 µM; with HCT-116 colon, 8.24 µM; in the assay on IGROV1 ovarian, 27.2 µM; in the assay on NCI-H23 lung it was 17.6 µM; with NCI-H522 lung, 8.89 µM. For the same compound, the TGI in the assay on OVCAR-8 ovarian came out at 23.5 µM; in the assay on SK-MEL-28 melanoma, 9.02 µM; in the assay on SK-OV-3 ovarian, 14 µM; with SR leukemia, 19 µM. In the assay with SK-OV-3 ovarian, the GI50 is 3.17 µM.
As to `CO[C@@]12C[C@H]3[C@@H]([C@@H](O)[C@@H](OC(=O)/C=C/c4ccccc4)[C@@]4(O)C(C)(C)CCC[C@]34C)[C@@H](C)C1=CC(=O)O2`, the GI50 was 3.64 µM in the assay with A549 NSCLC; 5.42 µM in the assay on COLO 205 colon; 8.8 µM in the assay on HCT-116 colon; 29.5 µM in the assay with IGROV1 ovarian; 13.5 µM in the assay on NCI-H23 lung; 35.1 µM in the assay on NCI-H522 lung. The GI50 in the assay on OVCAR-8 ovarian was 5.24 µM; with SK-MEL-28 melanoma, 11.3 µM; in the assay on SR leukemia, over 100 µM. Also, the TGI was 18.4 µM in the assay on A549 NSCLC; 54.2 µM with COLO 205 colon; over 100 µM with HCT-116 colon; over 100 µM in the assay with IGROV1 ovarian; 42.2 µM in the assay with NCI-H23 lung; over 100 µM in the assay on NCI-H522 lung. The TGI was 25.6 µM in the assay with OVCAR-8 ovarian, 35.4 µM in the assay on SK-MEL-28 melanoma and over 100 µM with SR leukemia.
Turning to `COc1cc2c([C@@H](OC(=O)c3ccccc3)c3ccc4c(c3)OCO4)nccc2c(OC)c1OC`, the TGI with A549 NSCLC, in the assay with COLO 205 colon, in the assay on HCT-116 colon, in the assay with IGROV1 ovarian, with NCI-H23 lung and with NCI-H522 lung was over 100 µM each time. Moreover, the TGI in the assay with OVCAR-8 ovarian, in the assay on SK-OV-3 ovarian and in the assay on SR leukemia was over 100 µM in each case.
Consider `C#C[C@H](CCCC)OC(=O)N[C@H](C)c1ccccc1`, for which the TGI with A549 NSCLC is over 100 µM; with COLO 205 colon, 48.7 µM; in the assay on HCT-116 colon, 63.4 µM; in the assay with IGROV1 ovarian, over 100 µM; with NCI-H522 lung, 86.8 µM; in the assay with OVCAR-8 ovarian, over 100 µM. The TGI in the assay on SK-MEL-28 melanoma is over 100 µM; in the assay on SK-OV-3 ovarian, over 100 µM; in the assay on SR leukemia it was 99.4 µM.
Regarding `COc1ccc(/C=C/C(=O)c2cc3c(N)c(C(=O)Nc4ccccc4C)sc3nc2C)cc1`, the GI50 with A549 NSCLC is 0.905 µM; in the assay on HCT-116 colon, 0.53 µM; with IGROV1 ovarian it was 0.655 µM; with NCI-H23 lung, 0.969 µM; in the assay on NCI-H522 lung, 0.194 µM; with OVCAR-8 ovarian it was 1.14 µM. Further, the results for the GI50 in the assay with SK-MEL-28 melanoma, in the assay on SK-OV-3 ovarian and in the assay with SR leukemia were 7.14 µM, 0.605 µM and 0.593 µM, respectively. Besides, the TGI in the assay with A549 NSCLC, in the assay with HCT-116 colon, in the assay on IGROV1 ovarian, in the assay on NCI-H23 lung, in the assay with NCI-H522 lung and in the assay on OVCAR-8 ovarian was over 50 µM each time. The TGI in the assay on SK-MEL-28 melanoma, in the assay with SK-OV-3 ovarian and with SR leukemia was over 50 µM in each case.
With `Cc1ccc(NC(=O)C2C(=O)N(c3ccc(C)c(C)c3)C(=O)/C2=N\NC(N)=S)cc1C` (stereo not drawn), the TGI in the assay with A549 NSCLC, in the assay with HCT-116 colon, in the assay with IGROV1 ovarian, with NCI-H23 lung, in the assay on NCI-H522 lung and with SK-MEL-28 melanoma was over 100 µM throughout. For the same compound, the TGI with SK-OV-3 ovarian and in the assay with SR leukemia was over 100 µM each time.
Turning to `CC1SC(c2c(Cl)cccc2Cl)N(NC(=O)C(O)c2ccccc2)C1=O` (stereo not drawn), the GI50 was 94 µM in the assay with A549 NSCLC; over 100 µM in the assay on COLO 205 colon; 56 µM in the assay with HCT-116 colon; 62.9 µM in the assay with IGROV1 ovarian; 60.9 µM in the assay with NCI-H522 lung; over 100 µM in the assay on OVCAR-8 ovarian. The GI50 is over 100 µM in the assay on SK-MEL-28 melanoma, over 100 µM with SK-OV-3 ovarian and 34.9 µM in the assay with SR leukemia. Further, the TGI in the assay with A549 NSCLC, in the assay on COLO 205 colon, with HCT-116 colon, in the assay on IGROV1 ovarian, in the assay on NCI-H522 lung and in the assay on OVCAR-8 ovarian was over 100 µM throughout. Besides, the TGI in the assay with SK-MEL-28 melanoma, in the assay with SK-OV-3 ovarian and with SR leukemia was over 100 µM throughout.
In the case of `CC(=O)c1cc2c(c3ccsc13)-c1ccccc1CC2`, the GI50 in the assay on A549 NSCLC is 35.7 µM; with COLO 205 colon, 42 µM; in the assay on HCT-116 colon, 20.3 µM; in the assay on IGROV1 ovarian, 36 µM; in the assay on NCI-H23 lung, 28.1 µM; in the assay with NCI-H522 lung it was 19.7 µM. For the same compound, the GI50 in the assay on OVCAR-8 ovarian is 53.1 µM; in the assay on SK-MEL-28 melanoma it was over 100 µM; with SK-OV-3 ovarian, over 100 µM. Moreover, the TGI in the assay with A549 NSCLC is over 100 µM; in the assay with COLO 205 colon, over 100 µM; in the assay on HCT-116 colon, over 100 µM; with IGROV1 ovarian, over 100 µM; in the assay on NCI-H23 lung, 95.6 µM; with NCI-H522 lung, 79.1 µM. Also, the TGI with OVCAR-8 ovarian, in the assay on SK-MEL-28 melanoma and in the assay with SK-OV-3 ovarian was over 100 µM throughout.
For `COc1ccc(C(=O)C(C(=O)C(=O)Nc2nccs2)c2ccc(OC)cc2)cc1` (stereo not drawn), the TGI in the assay on A549 NSCLC, in the assay on COLO 205 colon, in the assay on HCT-116 colon, in the assay with IGROV1 ovarian, in the assay on NCI-H23 lung and with NCI-H522 lung was over 100 µM throughout. The TGI in the assay on OVCAR-8 ovarian, in the assay on SK-MEL-28 melanoma and with SK-OV-3 ovarian was over 100 µM each time.
